Data taken from PMC5459853, “Cathepsin S inhibition combines control of systemic and peripheral pathomechanisms of autoimmune tissue injury” (Scientific Reports, 2017).
Entries after “also recorded” stand apart in the source; their conditions may differ.

How the values were obtained:
Human Cat-V = Human Cat-V (Homo sapiens, UniProt O60911); assay: Enzymatic isoform-selectivity assay, Cat-V; format: biochemical; details: read-out: apparent IC50, Cat V
Protocol: (§1) RO5459072 was provided by F. Hoffmann-La Roche, Ltd., Basel, Switzerland. It is a competitive inhibitor of the active site of Cat-S and its nitrile function allows covalent reversible inhibition of Cat-S. The synthesis of RO5459072 has been described in WO 2010121918 and WO 2013068434. Recombinant cathepsins were produced in-house or were purchased from commercial vendors. Initial enzymatic assays to determine isoform-selectivity in vitro were performed as previously described, [23]. […] For this the Cat-S-dependent hydrolysis of the fluorogenic substrate Z-Phe-Arg-AMC (Sigma Aldrich) was followed at various inhibitor concentrations. The active fraction of Cat-S was detemined as 70% with a HPLC assay measuring modification of Cat-S with the covalent inhibitor LHVS. The buffer (100 mM potassium phosphate, 50 mM NaCl, 5 mM EDTA, 5 mM TCEP, pH 6) was thoroughly degassed prior to perfoming measurements to prevent oxidation of the catalytic cystein residue by dissolved oxygen. For the Ki-determination the substrate was employed at 10 µM = KM. All kinetic measurements were performad on a SFM-3000 stopped-flow instrument (Bio-Logic Science Instruments) and data were analyzed with GraphPad Prism v5.

[1] = extensive screening studies in mice, rats, monkeys and humans preceding clinical trial NCT01701985; cited from earlier work
Human Cat-S = Human Cat-S (Homo sapiens, UniProt P25774); assay: Tight-binding kinetic analysis, Z-Phe-Arg-AMC hydrolysis, Morrison equation; format: biochemical; details: 10 µM Z-Phe-Arg-AMC (= KM), 10 nM Cat-S, pH 6
Protocol: as §1, with “The buffer (100 mM potassium phosphate, 50 mM NaCl, 5 mM EDTA, 5 mM TCEP, pH 6) was thoroughly degassed prior to perfoming measurements to prevent oxidation of the catalytic cystein residue by dissolved oxygen. For the Ki-determination the substrate was employed at 10 µM = KM.” left out, “v5. […]” for “v5.”
active Cat-S converged to [E]0 = 6.9 nM). […] (E) Pharmacodynamics of R05459072 was determined in C57Bl6 mice with increasing amounts of compound as single dose. […]
Supplementary figure 3. […] Plasma levels of IgG1 (A), IgG2a (B), and IgG2b (C) were determined by ELISA at different time points from the initiation (week 11) to the end of treatment (week 19). Data are expressed as means ± SEM (n=8 to 10 in […]

MRL-(Fas)lpr mice = assay: Intravenous recombinant Cat-S injection: albuminuria and glomerular ultrastructure (TEM); format: in vivo; details: 10 µg recombinant Cat-S i.v.
Protocol: Four-week-old female MRL-(Fas)lpr mice were purchased from Harlan Winkelmann (Borchen, Germany) and kept under pathogen-free conditions in a 12 hour light and dark cycle with free access to food and water. All animal experiments were performed in accordance with the European protection laws of animal welfare, and with approval by the local government authorities Regierung von Oberbayern (reference number: 55.2.1-54-2532.2-11-12). At 11 or 15 weeks of age only mice with proteinuria (Albustix, Bayer AG, Leverkusen, Germany) were randomized into five different groups (n = 10) receiving different medicated diets: Three groups were fed with chow mixed with either 3, 10 or 30 mg/kg/day RO5459072, another group’s chow was mixed with 100 mg/kg/day mycophenolate mofetil (MMF), and one group received a standard diet (vehicle). The dose of MMF was chosen according to several studies reporting strong efficacy on SLE and lupus nephritis in MRL-(Fas)lpr mice[24]–[26]. […] At the age of 19 weeks all mice were sacrificed by cervical dislocation. Blood and urine samples were collected at different time points as indicated. In other experiments 7 week old female MRL-(Fas)lpr mice were randomized into three groups (n = 3) to receive a single intravenous injection of 10 µg sterile recombinant Cat-S and one group receiving vehicle (100 µl sterile PBS). One of the Cat-S groups was pretreated with 30 mg/kg/day RO5459072 starting one week prior to Cat-S injection; another group was pretreated with a total of four daily intra-peritoneal injections of the PAR-2 inhibitor GB83 (10 mg/kg).
Urinary albumin/creatinine ratios were determined using the Mouse Albumin ELISA Quantitation set (Bethyl Laboratories, Montgomery, TX) and the Creatinine FS kit (DiaSys Diagnostic Systems, Holzheim, Germany)[44]. BUN levels were determined in plasma samples using a Urea FS kit (DiaSys Diagnostic Systems). Mouse IgM, IgG and its isotypes IgG1, IgG2a and IgG2b plasma levels were measured using ELISA Sets (Bethyl Laboratories) at a plasma dilution of 1:1,000 to 1:100,000. Double-stranded DNA IgG and IgM antibodies were quantified as described. Briefly, 96 well Nunc-Immuno plates (Thermo Fisher Scientific, Roskilde, Denmark) were coated with poly-L-lysine (1:1 diluted with PBS) and incubated for two hours. […] Absorbance was measured at 450 nm using a Tecan Microplate Reader (Biotek, Winnoski, VT). Indirect immunofluorescence was used to quantify ANA in mouse plasma. […]
Mouse kidney tissue was fixed in 2% paraformaldehyde/2% glutaraldehyde and 0.1M sodium phosphate buffer (pH 7.4) for 24 hours and processed as described. Samples were analyzed with a 1200EX electron microscope (JEOL, Tokyo, Japan).

Human Cat-V, sequence (O60911 114-334): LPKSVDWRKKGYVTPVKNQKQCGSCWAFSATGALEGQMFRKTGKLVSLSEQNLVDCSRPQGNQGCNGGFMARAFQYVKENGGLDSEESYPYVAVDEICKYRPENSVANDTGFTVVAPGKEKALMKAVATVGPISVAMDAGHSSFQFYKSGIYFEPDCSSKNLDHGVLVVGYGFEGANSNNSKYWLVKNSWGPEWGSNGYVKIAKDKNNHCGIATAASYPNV
Human Cat-S, sequence (P25774 115-331): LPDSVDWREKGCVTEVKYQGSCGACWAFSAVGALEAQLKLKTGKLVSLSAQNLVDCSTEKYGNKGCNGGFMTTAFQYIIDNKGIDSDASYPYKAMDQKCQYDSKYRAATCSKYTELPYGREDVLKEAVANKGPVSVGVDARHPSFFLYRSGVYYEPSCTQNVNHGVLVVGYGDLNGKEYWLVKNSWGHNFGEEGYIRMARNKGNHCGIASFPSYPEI

IC50 (Human Cat-V): 700 nM
Ki (Human Cat-S): 0.066 ± 0.025 nM
Compound: Cn1cc(-c2ccc(S(=O)(=O)[C@@H]3C[C@@H](C(=O)NC4(C#N)CC4)N(C(=O)C4(C(F)(F)F)CC4)C3)c(C(F)(F)F)c2)cn1 [RO5459072]
drug safety signals [1]: did not show any signals regarding drug safety
Cat-S-induced albuminuria (MRL-(Fas)lpr mice; 30 min, RO5459072 30 mg/kg/day pretreatment, GB83 10 mg/kg i.p.): completely prevented; also recorded: entirely blocked
Cat-S-induced glomerular endothelial cell injury (TEM) (MRL-(Fas)lpr mice; 24 h): completely prevented
